Peptide text beside a SMILES is read from it. * marks the point of attachment. Cbz = O=C(OCc1ccccc1)*
Tests used:
Purified cathepsin L = target: T1, Purified cathepsin L (Homo sapiens, UniProt P07711); assay: Cathepsin L activity, fluorogenic substrate (CV-Cathepsin L Detection Kit); format: biochemical; conditions: inhibitor 10 μM, 200 ng cathepsin L; positive control 4e+5 AU, negative control 0.75e+5 AU
T1 construct: purchased Biomol, Plymouth Meeting, Pa
Protocol: Cathepsin L activity was measured using a commercially available kit according to the manufacturer's procedure (CV-Cathepsin L Detection Kit; Biomol, Plymouth Meeting, Pa.). Purified cathepsin L (Biomol, Plymouth Meeting, Pa.) (200 ng) was incubated with each inhibitor (10 μM) in a 96 well plate for 15 min at room temperature in 100 μl of reaction buffer (100 mM sodium acetate pH 5, 1 mM EDTA (ethylenediaminetetraacetic acid), and 4 mM dithiothreitol). The protease inhibitors tested were: lactacystin and inhibitors of cathepsin L, B, S, and K. 100 μl of a fluorogenic substrate (CV-Cathepsin L Detection Kit; Biomol, Plymouth Meeting, Pa.) were added and incubated for an additional 30 min at room temperature. Fluorescence was measured in a plate reader (Victor Multilabel Counter, Perkin Elmer) at 380 nm excitation and […] emission wavelengths.

[1] = system: SKN-SH doxorubicin-resistant cells; assay: Viable cell count of SKN-SH doxorubicin-resistant cells with other chemotherapeutic agents; conditions: Homo sapiens, SK-N-SH, 72 h; for viability at 1 µM: read-out: number of viable cells, chemotherapeutic agent alone at 10^−6 M; for viability at 0.1 µM: read-out: number of viable cells, chemotherapeutic agent alone at 10^−7M; for viability at 0.01 µM: read-out: number of viable cells, chemotherapeutic agent alone at 10^−8M; for viability at 100 µM: read-out: number of viable cells, chemotherapeutic agent alone at 10^−4 M; for viability at 10 µM: read-out: number of viable cells, chemotherapeutic agent alone at 10^−5M
Protocol: SHN-SH cells were prepared in the manner described above. […] Viable cells were counted after 72 hours of incubation with the melphalan, etoposide, mitoxantrone, cyclophosphamide, and tamoxifen.

cathepsin L = assay: Cathepsin L expression by Western blot in siRNA-transfected Saos2-R cells; format: cell-based, human
From the text: The human cathepsin L siRNA was designed in our laboratory by studying a cDNA sequence of the human cathepsin L gene (SEQ ID NO: 2). We selected a segment defined by nucleotide numbers 91-111, sent that sequence to a contract laboratory (Dharmacon, Lafayette, Colo.), which synthesized an siRNA molecule based on the aforementioned segment. The segment of the human cathepsin L cDNA we used was: […] (91-111) (SEQ ID NO: 2). On the day before transfection, 3×10^5 drug resistant osteosarcoma cells (Saos2-R) were seeded in 6-well plates and grown in 2.5 ml of DMEM supplemented with 10% FBS. After 24 hours in culture, 25 μl of 20 μM stock solution of siRNA duplexes were transfected into cells with GeneSilencer™ SiRNA Transfection Reagent Kit (Gene Therapy Systems, Inc., San Diego, Calif.). Briefly, adherent cells were transfected in 6 well plates. Cells were about 70% confluent. In one tube, 5 μl of GeneSilencer™ was mixed with 25 μl of serum free medium. In a second tube, 25 μl of siRNA diluent was mixed with […] of serum free medium and 20 μl of siRNA (100 nM). After incubation of tubes 1 and 2, at room temperature for 5 min, they were mixed together into tube 3 and incubated for an additional 5 min. […] The cells were counted and protein lysates were used to detect cathepsin L expression by Western blot as described above.

[2] = system: drug resistant osteosarcoma cells (Saos2-R); assay: Cell count of drug resistant osteosarcoma cells after siRNA or inhibitor and doxorubicin; format: cell-based
From the text: The human cathepsin L siRNA was designed in our laboratory by studying a cDNA sequence of the human cathepsin L gene (SEQ ID NO: 2). We selected a segment defined by nucleotide numbers 91-111, sent that sequence to a contract laboratory (Dharmacon, Lafayette, Colo.), which synthesized an siRNA molecule based on the aforementioned segment. The segment of the human cathepsin L cDNA we used was: […] (91-111) (SEQ ID NO: 2). On the day before transfection, 3×10^5 drug resistant osteosarcoma cells (Saos2-R) were seeded in 6-well plates and grown in 2.5 ml of DMEM supplemented with 10% FBS. After 24 hours in culture, 25 μl of 20 μM stock solution of siRNA duplexes were transfected into cells with GeneSilencer™ SiRNA Transfection Reagent Kit (Gene Therapy Systems, Inc., San Diego, Calif.). Briefly, adherent cells were transfected in 6 well plates. Cells were about 70% confluent. In one tube, 5 μl of GeneSilencer™ was mixed with 25 μl of serum free medium. In a second tube, 25 μl of siRNA diluent was mixed with […] of serum free medium and 20 μl of siRNA (100 nM). After incubation of tubes 1 and 2, at room temperature for 5 min, they were mixed together into tube 3 and incubated for an additional 5 min. The content of tube 3 was added to the cells in the 6 well plates and incubated for 2 days before the addition of the drug. After 48 hours of incubation, doxorubicin (10^−5 M) was added and maintained in culture for an additional 48 hours before analysis. The cells were counted and protein lysates were used to detect cathepsin L expression by Western blot as described above.

[3] = system: Doxorubicin resistant human neuroblastoma cells (SKN-SH/R); assay: Tumor growth of SKN-SH/R cells injected into nude mice; format: in vivo
Protocol: Doxorubicin resistant human neuroblastoma cells (SKN-SH/R) cells grown into 75 cm^2 flasks were harvested by trypsinization and centrifuged to remove trypsin. The pellet was then reconstituted in culture medium at 10^7 cell/ml. On day one, 100 μl (10^6 cells) were injected to the right flank of nude mice (5 per group) and after the tumor became palpable at day 11, mice were assigned to four groups: 1) controls (treated with the vehicle DMSO), 2) Dox. 1.5 mg/kg (treated with doxorubicin alone 1.5 mg/Kg), 3) iCL 30 mg/Kg (treated with cathepsin L inhibitor alone at 30 mg/Kg), and 4) Dox 1.5 mg/Kg+iCL 30 mg/Kg (treated with the combination of doxorubicin 1.5 mg/Kg and cathepsin L inhibitor 30 mg/Kg). Intraperetoneal injections were given on day 11, day 14, and day 17.

[4] = system: Drug-sensitive cells SKN-SH; assay: Prevention of development of doxorubicin resistance, viable cell count, SKN-SH; format: cell-based, human; conditions: Dox 10^−9 M + inhibitor 10 μM
From the text: (§1) As discussed above, inhibition of cathepsin L enhanced drug response only in drug-resistant cells. Another aspect of the present invention was to determine whether treatment of drug-sensitive cancer cells with this drug combination prevents them from becoming drug resistant. […] After 4 days in culture, the surviving cells were subjected to the same treatment for an additional four days. The cells were then subjected to two subsequent treatments for four days with 2.5×10^−8 M doxorubicin with or without the cathepsin L inhibitor at 10 μM. The surviving cells were then treated with doxorubicin 5×10^−8 M doxorubicin with or without cathepsin L (10 μM) for four days. At the end of each incubation period, viable cells were counted.

[5] = system: Drug-sensitive cells Saos2; assay: Prevention of development of doxorubicin resistance, viable cell count, Saos2; format: cell-based; conditions: Dox 10^−9 M + inhibitor 10 μM
From the text: as §1

SKN-SH/R cells = assay: MTT cytotoxicity assay, doxorubicin-resistant neuroblastoma cells; format: cell-based; conditions: Homo sapiens, SK-N-SH, 96 h, read-out: IC50 (concentration at which 50% of cells remained viable) of the cytotoxic agent alone, SKN-SH/R cells, agent alone (control cells), 96 hours, MTT
Protocol: (§2) Human neuroblastoma SKN-SH cells (ATCC Cat. No. HTB-11) were cultured in Dulbecco's Modified Eagles Medium (DMEM; Gibco, Grand Island, N.Y.) supplemented with 10% fetal bovine serum (FBS; Sigma-Aldrich, St. Louis, Mo.) at 37° C. in a 95% Air/5% CO2 atmosphere. Resistant cells to doxorubicin (SKN-SH/R) were selected by stepwise exposure to drug concentrations ranging from 10^−9 M through 10^−6 M over a time period of three months. The resulting cell line was subjected to treatment with the doxorubicin alone or in combination with: proteosome inhibitor (Lactacystin), cathepsin B inhibitor (L-3-trans-(Propylcarbamoyl)oxirane-2-carbonyl]-L-isoleucyl-L praline), cathespin L inhibitor (Z-Phe-Tyr(t-Bu)-diazomethylketone), cathespin K inhibitor (1,3-Bis(N-CBZ-Leu-NH)-2-propanonel,3 -Di(N-carbonbenzoyloxy-L-leucyl)amino acetone), or cathespin S inhibitor (Z-Phe-Leu-COCHO.H2O), (all available from Calbiochem-Novabiochem, San Diego) at 10 μM each to determine whether they affect cell response to doxorubicin.
(§3) Cytotoxic activity of doxorubicin and cysteine protease inhibitors were quantitatively determined by a calorimetric assay utilizing 3-(4,5-dimethyl-2-thiazolyl) 2,5-diphenyl tetrazolium bromide (MTT; Sigma-Aldrich, St. Louis, Mo.). […] The optical density of this solution was measured at 570 nm and the percentage of viable cells estimated by comparison with untreated control cells. […]

SKN-SH wild type cells = assay: MTT cytotoxicity assay, SKN-SH wild type cells; format: cell-based; conditions: Homo sapiens, SK-N-SH, 96 h, read-out: IC50 of the cytotoxic agent alone
Protocol: as §2, §3

[6] = cathepsin inhibitor 30 mg/Kg + doxorubicin 1.5 mg/Kg

T1 sequence (P07711 114-333, species assumed): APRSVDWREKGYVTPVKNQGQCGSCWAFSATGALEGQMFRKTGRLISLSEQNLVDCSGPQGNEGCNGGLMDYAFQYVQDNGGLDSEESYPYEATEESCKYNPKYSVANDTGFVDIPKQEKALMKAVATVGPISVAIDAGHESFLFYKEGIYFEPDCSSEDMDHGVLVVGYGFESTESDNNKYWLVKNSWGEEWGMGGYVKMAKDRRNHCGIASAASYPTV

CC(C)C[C@H](NC(=O)OCc1ccccc1)C(=O)NCC(=O)CNC(=O)[C@H](CC(C)C)NC(=O)OCc1ccccc1 [cathepsin K inhibitor, 1,3-Bis(N-CBZ-Leu-NH)-2-propanonel,3 -Di(N-carbonbenzoyloxy-L-leucyl)amino acetone]
cathepsin L activity (arbitrary units) in presence of inhibitor (Purified cathepsin L): 1e+5 AU

O=C1c2c(O)ccc(O)c2C(=O)c2c(NCCNCCO)ccc(NCCNCCO)c21 [mitoxantrone]
viability at 1 µM [1]: ~5%
viability at 0.1 µM [1]: ~10%
viability at 0.01 µM [1]: ~40%

CC(C)CC(NC(=O)C(Cc1ccccc1)NC(=O)OCc1ccccc1)C(=O)C=O.O (stereo not drawn) [cathepsin S inhibitor, Z-Phe-Leu-COCHO.H2O]
cathepsin L activity (arbitrary units) in presence of inhibitor (Purified cathepsin L): 3e+5 AU

siRNA: human cathepsin L siRNA based on nucleotides 91-111 of the cathepsin L cDNA (SEQ ID NO: 2), synthesized by Dharmacon (UUCACCUUCCGCUACGUGUUG; listed as RNA, chemistry not given here; listed as Homo sapiens)
cathepsin L expression (Western blot), siRNA alone (cathepsin L; Saos2-R cells transfected with siRNA): completely diminished
cathepsin L expression (Western blot), siRNA and doxorubicin (cathepsin L; Saos2-R cells transfected with siRNA and treated with doxorubicin 10^−5 M): completely diminished
inhibition of cell proliferation, combination of siRNA and doxorubicin ([2]; doxorubicin 10^−5 M): ~90%
cell number, in combination with doxorubicin ([2]; doxorubicin 10^−5 M for 48 hours, untreated 1.6e+6 AU): 1.5e+5 AU
cell number, siRNA transfection alone ([2]; untreated 1.6e+6 AU): 8.0e+5 AU

COc1cc([C@@H]2c3cc4c(cc3[C@@H](O[C@@H]3O[C@@H]5CO[C@@H](C)O[C@H]5[C@H](O)[C@H]3O)[C@H]3COC(=O)[C@H]23)OCO4)cc(OC)c1O [etoposide]
viability at 100 µM [1]: ~10%
viability at 10 µM [1]: ~70%
viability at 1 µM [1]: ~90%
viability at 0.1 µM [1]: ~95%

O=C[C@H](Cc1ccc(O)cc1)NC(=O)[C@H](Cc1ccccc1)NC(=O)OCc1ccccc1 [iCL, Z-Phe-Tyr-aldehyde] (Cbz-Phe-Tyr-aldehyde)
tumor volume reduction at day 27 greater than doxorubicin alone, co-administered with doxorubicin [3, 6]: about 94%
tumor volume reduction at day 27 greater than the control, co-administered with doxorubicin [3, 6]: about 95%
tumor volume reduction at day 27 greater than the control, inhibitor alone ([3]; cathepsin inhibitor alone 30 mg/Kg): about 60%
tumor volume reduction at day 27 greater than doxorubicin, inhibitor alone ([3]; cathepsin inhibitor alone 30 mg/Kg vs doxorubicin 1.5 mg/Kg): about 50%
average tumor volume on day 27, combination with doxorubicin ([3]; nude mice, i.p. on day 11, 14, 17, Dox 1.5 mg/Kg+iCL 30 mg/Kg): approximately 100 mm^3
average tumor volume on day 27, single agent ([3]; nude mice, i.p. on day 11, 14, 17, doxorubicin alone 1.5 mg/Kg or iCL alone 30 mg/Kg): approximately 800 mm^3

CC[C@H](C)[C@H](NS(=O)(=O)c1ccc2ccccc2c1)C(=O)N[C@H](C=O)Cc1c[nH]c2ccccc12 [cathepsin L inhibitor (Napsule-Ile-Tryp), Napsule-Ile-Tryp]
viable cells, doxorubicin plus cathepsin L inhibitor, first concentration [4]: about 80%
viable cells, doxorubicin plus cathepsin L inhibition, first concentration [5]: about 90%

CCCNC(=O)[C@H]1O[C@@H]1C(=O)N[C@H](C(=O)N1CCC[C@H]1C(=O)O)[C@@H](C)CC (relative stereo) [cathepsin B inhibitor]
cathepsin L activity (arbitrary units) in presence of inhibitor (Purified cathepsin L): 3.5e+5 AU

CC/C(=C(\c1ccccc1)c1ccc(OCCN(C)C)cc1)c1ccccc1 [tamoxifen]
viability at 10 µM [1]: ~0%
viability at 1 µM [1]: ~60%
viability at 0.1 µM [1]: ~60%
viability at 0.01 µM [1]: ~75%

O=P1(N(CCCl)CCCl)NCCCO1 (stereo not shown) [cyclophosphamide]
viability at 100 µM [1]: ~70%
viability at 10 µM [1]: ~70%
viability at 1 µM [1]: ~80%
viability at 0.1 µM [1]: ~95%

N[C@@H](Cc1ccc(N(CCCl)CCCl)cc1)C(=O)O [melphalan]
viability at 1 µM [1]: ~0%
viability at 0.1 µM [1]: ~30%
viability at 0.01 µM [1]: ~60%

CC[C@]1(O)C[C@@H]2CN(CCc3c([nH]c4ccccc34)[C@@](C(=O)OC)(c3cc4c(cc3OC)N(C)[C@H]3[C@@](O)(C(=O)OC)[C@H](OC(C)=O)[C@]5(CC)C=CCN6CC[C@]43[C@@H]65)C2)C1 [vinblastine]
IC50 (SKN-SH/R cells): ~5.62 µM
IC50 (SKN-SH wild type cells): ~0.1 µM

CC(=O)N[C@@H](CSC(=O)[C@]1([C@@H](O)C(C)C)NC(=O)[C@H](C)[C@@H]1O)C(=O)O [lactacystin, Lactacystin]
cathepsin L activity (arbitrary units) in presence of inhibitor (Purified cathepsin L): 4.25e+5 AU

From US20090312277A1, “Compositions And Methods For Reversing Or Preventing Resistance Of A Cancer Cell To A Cytotoxic Agent” (priority 2004, published 2009)
